Laboratory results published in patent US12139481B2, “Compositions comprising macrocycle derivatives incorporating bridged macrocycles and methods of producing and using same” (Southwestern Oklahoma State University, priority 2015, dated 2024).
“And” between values parts separate entries of the source, which are not always exact repeats. Equal entries are not always repeated. Where two headings read alike, the source gives them in different places.

Columns and labels:
[1] = tested on: Cryptococcus neoformans ATCC 90113; test: Antimicrobial microdilution assay against Cryptococcus neoformans (modified CLSI/NCCLS, optical density); type: cell-based; conditions: for X more potent than Amphotericin B: C. neoformans, ratio of molar IC50 to Amphotericin B; for C. neoformans IC50 / IC50: in vitro, C. neoformans ATCC 90113; for IC50: read-out: C. neoformans IC50 (mol/L)
Summary of the method: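 Fungicidal endpoint taken by subculturing 5 μL from each clear well onto agar, MFC being the lowest concentration with no regrowth. Duplicate wells of serially diluted compound (20% DMSO/saline) in RPMI pH 6.0, read at 630 nm pre- and post-incubation, under modified CLSI methods. IC50 means 50% growth inhibition against controls.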

[2] = tested on: L. donovani promastigotes; test: Antileishmanial Alamar Blue assay on promastigotes; type: cell-based, Leishmania donovani; conditions: for X more potent than Pentamidine: L. donovani, ratio of molar IC50 to Pentamidine
Summary of the method: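 Alamar Blue fluorescence (544/590 nm) quantified growth after 48 hours at 26° C of compound-treated promastigotes. Parasites were seeded at 5×10^5/mL in RPMI 1640 plus 10% FCS; drug range 50-3.1 μg/mL, and IC50 derived by plotting percent growth against test concentration.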

[3] = tested on: Plasmodium falciparum W2 clone (Indochina, chloroquine-resistant); test: In vitro antimalarial assay, chloroquine-resistant W2 clone; type: cell-based; conditions: W2 clone; for IC50: converted with molecular weight, read-out: P. falciparum W2 IC50; for X more potent than chloroquine: molar IC50 ratio versus chloroquine
Summary of the method: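 Parasites grown in type A human RBCs; assay run on infected cell suspension at 2% parasitemia and 2% hematocrit, in duplicate at several concentrations. IC50 taken from dose curves, per the Makler method, with DMSO as vehicle; Vero cytotoxicity run in parallel to derive a selectivity index.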

[4] = promastigotes, 48 hours, Alamar Blue
[5] = promastigotes, 48 hours, Alamar Blue, read-out: L. donavani IC50

Row | SMILES | X more potent than Amphotericin B [1] | C. neoformans IC50 [1] | IC50 [1] | X more potent than Pentamidine [2] | L. donovani IC50 [2, 4] | IC50 [2, 5] | P. falciparum W2 IC50 [3] | IC50 [3] | X more potent than chloroquine [3] | IC50 ([2]; read-out: IC50 against L. donovani) | IC50 ([1]; HCl salt) | IC50 ([2]; promastigotes, 48 hours, Alamar Blue, HCl salt, read-out: L. donavani IC50)
1 | c1ccc(CN2CCN3CCCN(CC2)CCN(Cc2ccccc2)CC3)cc1 [AW009, Bn2PBCyclen] | 0.01 | 6.740 µg/mL | 17.2 µM | 0.10 | 21.40 µg/mL | 54.5 µM | 1.5560 µg/mL | 3.96 µM | 0.17 |  |  | 
2 | [Cl][Mn-2]([Cl])([Cl])[Cl].[Mn+2].c1ccc(CN2CCCN3CCCN(CCCN(Cc4ccccc4)CC3)CC2)cc1 [BME08, [Mn(Bn2PBCyclam)][MnCl4]] | 0.13 | 1.203 µg/mL | 1.79 µM | 2 and 2.01 | 1.78 µg/mL | 2.65 µM | 0.1206 µg/mL | 0.179 µM | 3.78 | 2.65 µM |  | 
3 | CC(=O)[O-].F[P-](F)(F)(F)(F)F.[Ni+2].c1ccc(CN2CCCN3CCCN(CCCN(Cc4ccccc4)CC3)CC2)cc1 [DJD22, [Ni(Bn2PBCyclam)(OAc)]PF6] | 0.03 | 5.240 µg/mL | 7.67 µM | 0.28 | 13.10 µg/mL | 19.2 µM | 0.9060 µg/mL | 1.33 µM | 0.51 |  |  | 
4 | c1cc(CN2CCCN3CCCN(CCCNCC3)CC2)ccc1CN1CCCN2CCCN(CCCNCC2)CC1 [SLK10, p-H2PBCyclams] | 0.01 | 15.010 µg/mL | 25.8 µM | 0.20 | 15.50 µg/mL | 26.6 µM | 1.7920 µg/mL | 3.07 µM | 0.22 |  |  | 
5 | CN1CCCN2CCN(CCCN(Cc3cccc(CN4CCCN5CCN(C)CCCN(CC5)CC4)c3)CC2)CC1.Cl.Cl.Cl.Cl.Cl.Cl.Cl.Cl [TJS04, m-CB-cyclams HCl salt] | 0.61 | 0.380 µg/mL |  | 0.50 | 10.37 µg/mL |  | 0.6558 µg/mL | 0.75 µM | 0.90 |  | 0.39 µM | 10.7 µM
